Laboratory results published in patent US8247211B2, “Glycopeptide antibiotics” (American Cyanamid Company, priority 2001, dated 2012).

How the values were obtained:
Experiment in all cases: In vitro antibacterial evaluation: minimum inhibitory concentration (MIC), broth dilution method
Format in all cases: cell-based
Details in all cases: 18 hours at 35° C.
[1] = tested on: Enterococcus sp.
Outline: (§1)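 MIC read as lowest drug level preventing visible growth. Organisms at 5×10^5 CFU/mL were exposed to a 64-0.06 μg/mL dilution series in Muller-Hinton II […] following NCCLS broth dilution standard M7-A2.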

[2] = tested on: Streptococcus sp.
Outline: as §1

[3] = tested on: Staphylococcus sp.
Outline: as §1

[4] = tested on: Escherichia coli
Outline: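 NCCLS M7-A2 broth dilution with Mueller-Hinton II, testing 64-0.06 μg/mL antibiotic against 5×10^5 CFU/mL inocula. Test strains include recent methicillin-, penicillin- or vancomycin-resistant clinical isolates. MIC is the lowest concentration preventing growth.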

[5] = Enterococcus faecalis (ATCC 29212)
[6] = Enterococcus faecalis (GC 2242)
[7] = Enterococcus faecalis (GC 4552)
[8] = Enterococcus faecalis (GC 4553)
[9] = Enterococcus faecalis (GC 4554)
[10] = Streptococcus agalactiae (GC 4564)
[11] = Streptococcus pneumoniae (GC 4565)
[12] = Coagulase Negative Staphylococcus (GC 4547)
[13] = Coagulase Negative Staphylococcus (GC 4548)
[14] = Coagulase Negative Staphylococcus (GC 4549)
[15] = Coagulase Negative Staphylococcus (GC 4551)
[16] = Staphylococcus aureus (ATCC 29213)
[17] = Staphylococcus aureus (GC 1131)
[18] = Staphylococcus aureus (GC 4541)
[19] = Staphylococcus aureus (GC 4542)
[20] = Staphylococcus aureus (GC 4544)
[21] = Staphylococcus aureus (GC 4545)
[22] = Staphylococcus aureus-SMITH (GC 4543)
[23] = Staphylococcus haemolyticus (GC 4546)

## Tri-N-[(phenylmethoxy)carbonyl]-cyclo[glycyl-β-methylphenylalanyltyrosyl-3-(2-iminoimidazolidin-4-yl)seryl-3-β-(2,3:4,6-di-O-isopropylidenehexopyranosyl)-2-iminoimidazolidin-4-yl]seryl-O-(tert-butyldimethylsilyl)seryl] [Example 249]
[1]; Enterococcus avium (GC 4558)
  MIC Enterococcus avium (GC 4558): 32 µg/mL
[1]; [5]
  MIC Enterococcus faecalis (ATCC 29212): 16 µg/mL
[1]; [6]
  MIC Enterococcus faecalis (GC 2242): 32 µg/mL
[1]; Enterococcus faecalis (GC 2691)
  MIC Enterococcus faecalis (GC 2691): 128 µg/mL
[1]; Enterococcus faecalis (GC 3059)
  MIC Enterococcus faecalis (GC 3059): 128 µg/mL
[1]; [7]
  MIC Enterococcus faecalis (GC 4552): 64 µg/mL
[1]; [8]
  MIC Enterococcus faecalis (GC 4553): 64 µg/mL
[1]; [9]
  MIC Enterococcus faecalis (GC 4554): 128 µg/mL
[1]; Enterococcus faecalis (GC 6189)
  MIC Enterococcus faecalis (GC 6189): 64 µg/mL
[1]; Enterococcus faecium (GC 2243)
  MIC Enterococcus faecium (GC 2243): 64 µg/mL
[1]; Enterococcus faecium (GC 4556)
  MIC Enterococcus faecium (GC 4556): 32 µg/mL
[1]; Enterococcus faecium (GC 4557)
  MIC Enterococcus faecium (GC 4557): 64 µg/mL
[1]; broth dilution, strain ATCC 29212
  MIC Enterococcus faecalis (ATCC 29212): 16 µg/mL
[1]; broth dilution, strain GC 2242
  MIC Enterococcus faecalis (GC 2242): 32 µg/mL
[1]; broth dilution, strain GC 2243
  MIC Enterococcus faecium (GC 2243): 64 µg/mL
[1]; broth dilution, strain GC 2691
  MIC Enterococcus faecalis (GC 2691): 128 µg/mL
[1]; broth dilution, strain GC 3059
  MIC Enterococcus faecalis (GC 3059): 128 µg/mL
[1]; broth dilution, strain GC 4552
  MIC Enterococcus faecalis (GC 4552): 64 µg/mL
[1]; broth dilution, strain GC 4553
  MIC Enterococcus faecalis (GC 4553): 64 µg/mL
[1]; broth dilution, strain GC 4554
  MIC Enterococcus faecalis (GC 4554): 128 µg/mL
[1]; broth dilution, strain GC 4556
  MIC Enterococcus faecium (GC 4556): 32 µg/mL
[1]; broth dilution, strain GC 4557
  MIC Enterococcus faecium (GC 4557): 64 µg/mL
[1]; broth dilution, strain GC 4558
  MIC Enterococcus avium (GC 4558): 32 µg/mL
[1]; broth dilution, strain GC 6189
  MIC Enterococcus faecalis (GC 6189): 64 µg/mL
[2]; [10]
  MIC Streptococcus agalactiae (GC 4564): 128 µg/mL
[2]; Streptococcus pneumoniae (ATCC 6301)
  MIC Streptococcus pneumoniae (ATCC 6301): 64 µg/mL
[2]; Streptococcus pneumoniae (GC 1894)
  MIC Streptococcus pneumoniae (GC 1894): 32 µg/mL
[2]; [11]
  MIC Streptococcus pneumoniae (GC 4565): 64 µg/mL
[2]; Streptococcus pyogenes (GC 4563)
  MIC Streptococcus pyogenes (GC 4563): 128 µg/mL
[2]; broth dilution, strain ATCC 6301
  MIC Streptococcus pneumoniae (ATCC 6301): 64 µg/mL
[2]; broth dilution, strain GC 1894
  MIC Streptococcus pneumoniae (GC 1894): 32 µg/mL
[2]; broth dilution, strain GC 4563
  MIC Streptococcus pyogenes (GC 4563): 128 µg/mL
[2]; broth dilution, strain GC 4564
  MIC Streptococcus agalactiae (GC 4564): 128 µg/mL
[2]; broth dilution, strain GC 4565
  MIC Streptococcus pneumoniae (GC 4565): 64 µg/mL
[3]; [12]
  MIC Coagulase Negative Staphylococcus (GC 4547): 64 µg/mL
[3]; [13]
  MIC Coagulase Negative Staphylococcus (GC 4548): 128 µg/mL
[3]; [14]
  MIC Coagulase Negative Staphylococcus (GC 4549): 128 µg/mL
[3]; [15]
  MIC Coagulase Negative Staphylococcus (GC 4551): 64 µg/mL
[3]; Coagulase Negative Staphylococcus (GC 6257)
  MIC Coagulase Negative Staphylococcus (GC 6257): 128 µg/mL
[3]; [16]
  MIC Staphylococcus aureus (ATCC 29213): 128 µg/mL
[3]; [17]
  MIC Staphylococcus aureus (GC 1131): 128 µg/mL
[3]; Staphylococcus aureus (GC 3051)
  MIC Staphylococcus aureus (GC 3051): 128 µg/mL
[3]; Staphylococcus aureus (GC 3053)
  MIC Staphylococcus aureus (GC 3053): 128 µg/mL
[3]; [18]
  MIC Staphylococcus aureus (GC 4541): 128 µg/mL
[3]; [19]
  MIC Staphylococcus aureus (GC 4542): 64 µg/mL
[3]; [20]
  MIC Staphylococcus aureus (GC 4544): 64 µg/mL
[3]; [21]
  MIC Staphylococcus aureus (GC 4545): 128 µg/mL
[3]; [22]
  MIC Staphylococcus aureus-SMITH (GC 4543): 128 µg/mL
[3]; [23]
  MIC Staphylococcus haemolyticus (GC 4546): 128 µg/mL
[3]; broth dilution, strain ATCC 29213
  MIC Staphylococcus aureus (ATCC 29213): 128 µg/mL
[3]; broth dilution, strain GC 1131
  MIC Staphylococcus aureus (GC 1131): 128 µg/mL
[3]; broth dilution, strain GC 3051
  MIC Staphylococcus aureus (GC 3051): 128 µg/mL
[3]; broth dilution, strain GC 3053
  MIC Staphylococcus aureus (GC 3053): 128 µg/mL
[3]; broth dilution, strain GC 4541
  MIC Staphylococcus aureus (GC 4541): 128 µg/mL
[3]; broth dilution, strain GC 4542
  MIC Staphylococcus aureus (GC 4542): 64 µg/mL
[3]; broth dilution, strain GC 4543
  MIC Staphylococcus aureus-SMITH (GC 4543): 128 µg/mL
[3]; broth dilution, strain GC 4544
  MIC Staphylococcus aureus (GC 4544): 64 µg/mL
[3]; broth dilution, strain GC 4545
  MIC Staphylococcus aureus (GC 4545): 128 µg/mL
[3]; broth dilution, strain GC 4546
  MIC Staphylococcus haemolyticus (GC 4546): 128 µg/mL
[3]; broth dilution, strain GC 4547
  MIC Coagulase Negative Staphylococcus (GC 4547): 64 µg/mL
[3]; broth dilution, strain GC 4548
  MIC Coagulase Negative Staphylococcus (GC 4548): 128 µg/mL
[3]; broth dilution, strain GC 4549
  MIC Coagulase Negative Staphylococcus (GC 4549): 128 µg/mL
[3]; broth dilution, strain GC 4551
  MIC Coagulase Negative Staphylococcus (GC 4551): 64 µg/mL
[3]; broth dilution, strain GC 6257
  MIC Coagulase Negative Staphylococcus (GC 6257): 128 µg/mL
[4]
  MIC Escherichia coli (ATCC 25922): 128 µg/mL
[4]; Escherichia coli (GC 4559)
  MIC Escherichia coli (GC 4559): 128 µg/mL
[4]; Escherichia coli (GC 4560)
  MIC Escherichia coli (GC 4560): 128 µg/mL

## α-O-[(Butylamino)carbonyl]-cyclo[glycyl-β-methylphenylalanyl-O-(4-O-hexopyranosylhexopyranosyl)tyrosyl-3-(2-iminoimidazolidin-4-yl)seryl-3-(3-hexopyranosyl-2-iminoimidazolidin-4-yl)serylseryl] [Example 252]
[1]; Enterococcus avium (GC 4558)
  MIC Enterococcus avium (GC 4558): >64 µg/mL
[1]; [5]
  MIC Enterococcus faecalis (ATCC 29212): >64 µg/mL
[1]; [6]
  MIC Enterococcus faecalis (GC 2242): >64 µg/mL
[1]; [7]
  MIC Enterococcus faecalis (GC 4552): >64 µg/mL
[1]; [8]
  MIC Enterococcus faecalis (GC 4553): >64 µg/mL
[1]; [9]
  MIC Enterococcus faecalis (GC 4554): >64 µg/mL
[1]; Enterococcus faecium (GC 2243)
  MIC Enterococcus faecium (GC 2243): >64 µg/mL
[1]; Enterococcus faecium (GC 4556)
  MIC Enterococcus faecium (GC 4556): >64 µg/mL
[1]; Enterococcus faecium (GC 4557)
  MIC Enterococcus faecium (GC 4557): >64 µg/mL
[2]; [10]
  MIC Streptococcus agalactiae (GC 4564): >64 µg/mL
[2]; [11]
  MIC Streptococcus pneumoniae (GC 4565): >64 µg/mL
[2]; Streptococcus pyogenes (ID-3187)
  MIC Streptococcus pyogenes (ID-3187): >64 µg/mL
[3]; [12]
  MIC Coagulase Negative Staphylococcus (GC 4547): >64 µg/mL
[3]; [13]
  MIC Coagulase Negative Staphylococcus (GC 4548): >64 µg/mL
[3]; [14]
  MIC Coagulase Negative Staphylococcus (GC 4549): >64 µg/mL
[3]; [15]
  MIC Coagulase Negative Staphylococcus (GC 4551): >64 µg/mL
[3]; Coagulase Negative Staphylococcus (ID-3941)
  MIC Coagulase Negative Staphylococcus (ID-3941): >64 µg/mL
[3]; [16]
  MIC Staphylococcus aureus (ATCC 29213): >64 µg/mL
[3]; [17]
  MIC Staphylococcus aureus (GC 1131): >64 µg/mL
[3]; [18]
  MIC Staphylococcus aureus (GC 4541): >64 µg/mL
[3]; [19]
  MIC Staphylococcus aureus (GC 4542): >64 µg/mL
[3]; [20]
  MIC Staphylococcus aureus (GC 4544): >64 µg/mL
[3]; [21]
  MIC Staphylococcus aureus (GC 4545): >64 µg/mL
[3]; [22]
  MIC Staphylococcus aureus-SMITH (GC 4543): >64 µg/mL
[3]; [23]
  MIC Staphylococcus haemolyticus (GC 4546): >64 µg/mL
[4]
  MIC Escherichia coli (ATCC 25922): >64 µg/mL
